The values that follow come from patent US9832992B1, “Microbicidal composition” (Dow Global Technologies LLC, priority 2013, dated 2017).

Like-named read-outs stand apart in the source and are kept apart here.

Holding throughout (assay type): cell-based
The test system of test [1] is Pseudomonas aeruginosa ATCC #15442. Kind of test: MIC / synergy index test in 96 well microtiter plates, Gram negative bacteria. As to the method: (§1) Surfactants and biocides were evaluated for synergy by determining the synergy index (S.I.) of the combination. Synergy index was calculated based on minimum inhibitory concentrations (MIC) of two antimicrobial compounds (A and B) alone and in combinations. The tests organisms were Gram negative bacteria (Pseudomonas aeruginosa ATCC #15442), Gram positive bacteria (Staphylococcus aureus ATCC #6538), yeast (Candida albicans ATCC#10203) and mold (Aspergillus niger ATCC#16404). Contact time for the bacteria was 24 and 48 hours, yeast was 48 and 72 hrs, and 3 and 7 days for mold. The test was carried out in 96 well microtiter plates.
(§2) SI is calculated as follows: Ca/CA+Cb/CB=Synergy Index (“SI”)
(§3) Wherein: • CA=concentration of compound A in ppm, acting alone, which produced an end point (MIC of Compound A). • Ca=concentration of compound A in ppm, in the mixture, which produced an end point. • CB=concentration of compound B in ppm, acting alone, which produced an end point (MIC of Compound B). • Cb=concentration of compound B in ppm, in the mixture, which produced an end point. When the sum of Ca/CA and Cb/CB is greater than one, antagonism is indicated.

Test [2] has as its system Candida albicans ATCC#10203. As to the kind of experiment: MIC / synergy index test in 96 well microtiter plates, yeast. The protocol: as §1, §2, §3
Test [3] relates to Staphylococcus aureus ATCC #6538. Kind of test: MIC / synergy index test in 96 well microtiter plates, Gram positive bacteria. The protocol:
as §1, §2, §3

The test system of test [4] is Aspergillus niger ATCC#16404. Kind of test: MIC / synergy index test in 96 well microtiter plates, mold. As to the method:
as §1, §2, §3

Consider `O=[N+]([O-])C(Br)(CO)CO` [BNPD, 2-bromo-2-nitropropane-1,3-diol], for which the “CB (MIC of compound B alone)” value worked out at 10 ppm in test [1] (B: BNPD; table with Surf. D; 24 hrs; Media: 1/10 TSB; Inoculum size: 1.16E+08), 10 ppm in test [1] (B: BNPD; table with Surf. E; 24 hrs; Media: 1/10 TSB; Inoculum size: 5.727E+07 CFU/ml), 1000 ppm in test [2] (B: BNPD; table with Surf. E; 48 hrs; Media: PDB; Inoculum size: 1.808E+06 CFU/ml) and 20 ppm in test [3] (B: BNPD; table with Surf. E; 24 hrs; Media: 1/10 TSB; Inoculum size: 1.808E+06 CFU/ml). In addition, the minimal inhibitory concentration (MIC) in test [1] (Pseudomonas aeruginosa, ATCC15442, 24 h; read-out: CB (MIC of compound B alone)) is 10 µg/mL; in test [2] (Candida albicans, ATCC10203, 48 h; read-out: CB (MIC of compound B alone)) it was 1000 µg/mL; in test [3] (Staphylococcus aureus, ATCC6538, 24 h; read-out: CB (MIC of compound B alone)), 20 µg/mL; in test [4] (Aspergillus niger, ATCC16404; read-out: CB (MIC of compound B alone)), 1000 µg/mL.

As for `CN1CSC(=S)N(C)C1` [DAZOMET, tetrahydro-3,5-dimethyl-2H-1,3,5-thiadiazine-2-thione], the minimal inhibitory concentration (MIC) in test [1] (Pseudomonas aeruginosa, ATCC15442, 24 h, read-out: CB (MIC of compound B alone)) came to 80 µg/mL; in test [2] (Candida albicans, ATCC10203, 48 h, read-out: CB (MIC of compound B alone)) it was 50 µg/mL; in test [3] (Staphylococcus aureus, ATCC6538, 24 h, read-out: CB (MIC of compound B alone)), 200 µg/mL; in test [4] (Aspergillus niger, ATCC16404, read-out: CB (MIC of compound B alone)) it was 60 µg/mL. Besides, the “CB (MIC of compound B alone)” value in test [2] (B: DAZOMET; table with Surf. D; 48 hrs; Media: PDB; Inoculum size: 5.72E+05) is recorded as 50 ppm. Besides, the “CB: MIC of B alone” value in test [3] (B: DAZOMET alone; 24 hrs; Media 1/10 TSB; inoculum 5.72E+05) is 200 PPM AI. Moreover, the results for the “CB: MIC of B (DAZOMET) alone” value in test [4] (A. niger ATCC #16404; 3rd day; Media: PDB; Inoculum size: 1.156E+06; table with A: Surf. E) and in test [4] (A. niger ATCC #16404; 3rd day; Media: PDB; Inoculum size: 1.56E+06; table with A: Surf. D) were 30 PPM AI and 40 PPM AI, respectively.

As a reminder, the MIC is the lowest concentration found to suppress growth.
